{
  "source": "patent EP2039683B1",
  "about": "“Vasculostatic agents and methods of use thereof” (Targegen, Inc., priority 2002, dated 2004)",
  "key": {"[1]": {"assay": "Cerebral stroke model, permanent middle cerebral artery occlusion", "format": "in vivo, mice", "settings": "1 mg/kg BW IV 60 min after ligation; for Infarct area in mm^3 (mean ± SEM): twenty four hours later; for % Infarct reduction: versus vehicle of the same study", "method": "Cerebral strokes were created in mice by permanent ligation of the middle cerebral artery using a cauterizing tool, followed 60 min later by IV injection of either vehicle alone (50% PEG400 in water) or test agents (at 1 mg/kg BW). Twenty four hours later, brains were sectioned and stained using triphenyltetrazolium chloride to delineate viable from infarcted tissue."}, "[2]": {"test_system": "CT-26 Colon carcinoma cells", "assay": "CT-26 colon carcinoma lung metastases model, net tumor burden", "format": "in vivo, Balb/C mice", "method": "FIGURE 3 (omitted) illustrates the effect of compounds administered in conjunction with doxorubicin in an in vivo model of metastatic colon cancer (CT-26 adenocarcinoma). Syngeneic CT-26 Colon carcinoma cells were injected I.V. in order to establish lung metastases in Balb/C mice. Beginning 10 days after cells were injected, test agents were given I.P. every 3 days for 3 cycles. Animals were sacrificed at day 20, lungs were collected, and weighed. Net tumor burden is the weight of tumor-bearing lungs minus the average weight of normal control lungs. N=5/group, p<0.02. In the experiment compound A is 6,7-bis(4-hydroxyphenyl)-pteridin-4-ylamine sulfate salt, and compound B is 6,7-diphenyl-pteridine-2,4-diamine.\nFIGURE 4 (omitted) illustrates the effects of compounds of the present invention for co-drug therapy with Taxotere as described herein. Syngeneic CT-26 Colon carcinoma cells were used in order to establish lung metastases in Balb/C mice as described above. 6,7-bis(4-hydroxyphenyl)-pteridin-4-ylamine, sulfate salt (compound A) and 6,7-diphenyl-pteridine-2,4-diamine (compound B) were used.\nFIGURE 6 (omitted) illustrates the effect of compounds administered in conjunction with docetaxel in the in vivo model of metastatic colon cancer (CT-26 adenocarcinoma) described for FIGURE 4. 2,3-Bis(3,4-dihydroxyphenyl)-pyrido[2,3-b]pyrazin-6-ylamine dihydrochloride salt (compound C) from FIGURE 4 is shown in FIGURE 6 as compound C. N=5/group, p<0.02.\n(§1) Syngeneic CT-26 Colon carcinoma cells were injected I. V. in order to establish lung metastases in Balb/C mice. Beginning 10 days after cells were injected, indicated test agents were given I. P. every 3 days for 3 cycles. Animals were sacrificed at day 20, lungs were collected, and weighed. Net tumor burden is the weight of tumor-bearing lungs minus the average weight of normal control lungs. N=5/group, p < 0.02.\nas §1, with “FIGURE 4 (omitted) illustrates the effects of the compounds of the present invention for co- drug therapy with docetaxel (Taxoteree-in this example formulated in 12. 5% Cremaphore: 12.5% Ethanol: 75% normal saline) as described herein. Syngeneic” for “Syngeneic”, “I.V.” for “I. V.”\nFIGURE 6 (omitted) illustrates the effect of compounds administered in conjunction with docetaxel (Taxoreree-in this example formulated in 12.5% Cremaphore: 12.5% Ethanol:75% normal saline) in the in vivo model of metastatic colon cancer (CT-26 adenocarcinoma) described for FIGURE 4 (omitted). […] N=5/group,p < 0.02.\nSimilarly, 2,3-bis (4-hydroxyphenyl)-pyrido [2,3-b] pyrazin-6-ylamine dihydrochloride salt inhibited tumor burden alone or with co-drug therapy using docetaxel (Taxotere@~in this example formulated in 12.5% Cremaphore : 12.5% Ethanol:75% normal saline) as described herein. Syngeneic CT-26 Colon carcinoma cells were injected I.V. in order to establish lung metastases in Balb/C mice. Beginning 10 days after cells were injected, indicated test agents were given I.P. every 3 days for 3 cycles. Animals were sacrificed at day 20, lungs were collected, and weighed."}, "histamine as agonist": {"test_system": "histamine as agonist", "assay": "Miles assay, histamine as agonist", "format": "in vivo, Sprague-Dawley rats", "settings": "1.5 mg/kg; histamine 10 µg/injection site; vehicle 12", "method": "Sprague-Dawley rats were first injected IV with vehicle alone or test agent, followed by IV injection of Evans blue dye, followed by intradermal injections of saline and VEGF (200 ng/injection site) along both shaved flanks.\nThe ability of test agents to influence edema induced by agonists other than VEGF was also tested.\nThe ability of test agent to influence vascular edema was tested as above, except that the ability to block edema was tested using either VEGF or histamine as the agonist (200 ng and 10 µg/injection site, respectively)."}, "[3]": {"assay": "Acute myocardial infarct model, 60 min LAD occlusion followed by reperfusion", "format": "in vivo, Sprague-Dawley rats", "settings": "for Infarct (% AAR, mean ± SEM): 24 hr post-treatment; for % Infarct reduction: versus vehicle of the same study", "method": "Myocardial infarcts were created in Sprague-Dawley rats (200-300 g body weight) by a 60 min occlusion of the LAD followed by LAD reperfusion. At 90 min post-reperfusion, either vehicle alone or test agents were injected IV. At 24 hr post-treatment, the ischemic zone (area at-risk, AAR) was delineated by re-ligation of the LAD followed by IV injection of alkali blue dye, after which hearts were sectioned along the short axis and stained using triphenyltetrazolium chloride to delineate viable from infarcted myocardium. Photographic images were then analyzed using morphometric software to calculate infarct area as a percent of the at-risk area.\nIn one group, 3-[2,4-diamino-6-(3-hydroxyphenyl)pteridin-7-yl] phenol dihydrochloride salt was administered at both 60 and 240 min post-occlusion."}, "VEGF-induced edema": {"test_system": "VEGF-induced edema", "assay": "Miles assay, VEGF as agonist", "format": "in vivo, Sprague-Dawley rats", "settings": "VEGF 200 ng/injection site, vehicle 12", "method": "A rodent model of vascular edema, the Miles assay, was used to screen compounds for their ability to inhibit VEGF-induced edema. […] Sprague-Dawley rats were first injected IV with vehicle alone or test agent, followed by IV injection of Evans blue dye, followed by intradermal injections of saline and VEGF (200 ng/injection site) along both shaved flanks. […] The ability of test agent to influence vascular edema was tested as above, except that the ability to block edema was tested using either VEGF or histamine as the agonist (200 ng and 10 µg/injection site, respectively)."}, "[4]": {"settings": "stand alone agent, docetaxel co-drug studies (FIGURES 4 and 6), I.P. every 3 days for 3 cycles, day 20"}, "[5]": {"settings": "in combination with docetaxel, I.P. every 3 days for 3 cycles, day 20"}, "[6]": {"settings": "0.1 mg/kg BW IV at 90 min post-reperfusion"}, "[7]": {"settings": "1.0 mg/kg BW IV at 90 min post-reperfusion"}},
  "data": [
    {"molecule": "CN(C)S(=O)(=O)c1ccc2c(c1)/C(=C/c1cc3c([nH]1)CCCC3)C(=O)N2", "note": "[SU6656, reference compound]", "values": [
      {"measurement": "Infarct area in mm^3 (mean ± SEM)", "setting": "[1]", "result": "24.3 ± 5.3", "unit": "mm^3"},
      {"measurement": "% Infarct reduction", "setting": "[1]", "result": "Not significant"}
    ]},
    {"molecule": "Nc1nc(N)c2nc(-c3ccccc3)c(-c3ccccc3)nc2n1", "note": "[compound B, 6,7-diphenyl-pteridine-2,4-diamine]", "values": [
      {"measurement": "reduction of tumor burden", "setting": "[2]; in combination with doxorubicin as printed, FIGURE 4 experiment (docetaxel study)", "result": "greater than 70%"},
      {"measurement": "reduction of tumor burden", "setting": "[2]; in combination with doxorubicin, FIGURE 3 experiment, I.P. every 3 days for 3 cycles, day 20", "result": "greater than 65%"},
      {"measurement": "tumor burden in lungs (photo of representative lung samples)", "setting": "[2]; plus doxorubicin, compared with vehicle (control) lungs, FIGURE 5", "result": "dramatic reduction in tumor burden"},
      {"measurement": "reduction of tumor burden", "setting": "[2]; stand alone agent, FIGURE 3 experiment (doxorubicin study), I.P. every 3 days for 3 cycles, day 20", "result": 35, "unit": "%"},
      {"measurement": "reduction of tumor burden", "setting": "[2]; [4]", "result": 20, "unit": "%"}
    ]},
    {"molecule": "Oc1nc(O)c2nc(-c3ccccc3)c(-c3ccccc3)nc2n1", "note": "[6,7-Diphenyl-pteridine-2,4-diol]", "values": [
      {"measurement": "Infarct area in mm^3 (mean ± SEM)", "setting": "[1]", "result": "20.2 ± 4.19", "unit": "mm^3"},
      {"measurement": "% Infarct reduction", "setting": "[1]", "result": 52, "unit": "%"}
    ]},
    {"molecule": "Cl.Cl.Nc1ccc2nc(-c3ccc(O)c(O)c3)c(-c3ccc(O)c(O)c3)nc2n1", "note": "[compound C, 2,3-Bis(3,4-dihydroxyphenyl)-pyrido[2,3-b]pyrazin-6-ylamine dihydrochloride salt]", "values": [
      {"measurement": "reduction of tumor burden", "setting": "[2]; [5]", "result": "greater than 85%"},
      {"measurement": "reduction of tumor burden", "setting": "[2]; [4]", "result": 65, "unit": "%"}
    ]},
    {"molecule": "O=C(Nc1cc2ccccc2[nH]1)c1cc(O)c(O)c(O)c1", "note": "[3,4,5-Trihydroxy-N-(1H-indol-2-yl)-benzamide]", "values": [
      {"measurement": "Score with histamine as agonist (scale of 0-12)", "setting": "histamine as agonist", "result": 7}
    ]},
    {"molecule": "Oc1ncnc2nc(-c3ccccc3)c(-c3ccccc3)nc12", "note": "[6,7-Diphenyl-pteridin-4-ol]", "values": [
      {"measurement": "Score with histamine as agonist (scale of 0-12)", "setting": "histamine as agonist", "result": 4}
    ]},
    {"molecule": "Nc1ncnc2nc(-c3ccccn3)c(-c3ccccn3)nc12", "note": "[6,7-Di-pyridin-2-yl-pteridin-4-ylamine]", "values": [
      {"measurement": "Infarct area in mm^3 (mean ± SEM)", "setting": "[1]", "result": "27.2 ± 2.63", "unit": "mm^3"},
      {"measurement": "% Infarct reduction", "setting": "[1]", "result": "Not significant"}
    ]},
    {"molecule": "Cc1ccc(-c2nn(C(C)(C)C)c3ncnc(N)c23)cc1", "note": "[PP1, reference compound]", "values": [
      {"measurement": "% Infarct reduction", "setting": "[1]", "result": "Not significant"}
    ]},
    {"molecule": "Cl.Cl.Nc1ccc2nc(-c3ccc(O)cc3)c(-c3ccc(O)cc3)nc2n1", "note": "[2,3-bis(4-hydroxyphenyl)-pyrido[2,3-b]pyrazin-6-ylamine dihydrochloride salt]", "values": [
      {"measurement": "reduction of tumor burden", "setting": "[2]; [5]", "result": "greater than 78%"},
      {"measurement": "reduction of tumor burden", "setting": "[2]; [4]", "result": 63, "unit": "%"}
    ]},
    {"molecule": "Cl.Cl.Nc1nc(N)c2nc(-c3cccc(O)c3)c(-c3cccc(O)c3)nc2n1", "note": "[3-[2,4-diamino-6-(3-hydroxyphenyl)pteridin-7-yl] phenol dihydrochloride salt]", "values": [
      {"measurement": "Infarct (% AAR, mean ± SEM)", "setting": "[3]; [6]", "result": "37.7 ± 5.8", "unit": "% AAR"},
      {"measurement": "% Infarct reduction", "setting": "[3]; 0.1 mg/kg BW", "result": 30, "unit": "%"},
      {"measurement": "Infarct (% AAR, mean ± SEM)", "setting": "[3]; [7]", "result": "46.4 ± 2.6", "unit": "% AAR"},
      {"measurement": "% Infarct reduction", "setting": "[3]; 1.0 mg/kg BW", "result": "Not significant"},
      {"measurement": "Score (scale of 0-12)", "setting": "VEGF-induced edema; 0.01 mg/kg IV", "result": 3},
      {"measurement": "Score (scale of 0-12)", "setting": "VEGF-induced edema; 0.1 mg/kg IV", "result": 4},
      {"measurement": "Score (scale of 0-12)", "setting": "VEGF-induced edema; 1 mg/kg IV", "result": 4}
    ]},
    {"molecule": "Cl.Nc1ncnc2nc(-c3cccc(O)c3)c(-c3cccc(O)c3)nc12", "note": "[6,7-Bis(3-hydroxyphenyl)-pteridine-4-ylamine hydrochloride salt]", "values": [
      {"measurement": "Infarct (% AAR, mean ± SEM)", "setting": "[3]; [6]", "result": "39.1 ± 4.2", "unit": "% AAR"},
      {"measurement": "% Infarct reduction", "setting": "[3]; 0.1 mg/kg BW", "result": 37, "unit": "%"},
      {"measurement": "Infarct (% AAR, mean ± SEM)", "setting": "[3]; [7]", "result": "39.1 ± 7.5", "unit": "% AAR"},
      {"measurement": "% Infarct reduction", "setting": "[3]; 1.0 mg/kg BW", "result": 37, "unit": "%"}
    ]},
    {"molecule": "O=C(Nc1ccccc1-c1cc2ccccc2[nH]1)c1cc(O)c(O)c(O)c1", "note": "[3,4,5-Trihydroxy-N-[2-(1H-indol-2-yl)-phenyl]-benzamide]", "values": [
      {"measurement": "Score with histamine as agonist (scale of 0-12)", "setting": "histamine as agonist", "result": 7}
    ]}
  ]
}
